Experimental data reported in the Kinase Knowledgebase extract (Sharma et al. 2016).

Target: PIK3CD (Human) (UniProt O00329)
Test: Assessment of PIK3CD Kinase Activity

Chain of PIK3CD (Human) (O00329 whole entry, looked up): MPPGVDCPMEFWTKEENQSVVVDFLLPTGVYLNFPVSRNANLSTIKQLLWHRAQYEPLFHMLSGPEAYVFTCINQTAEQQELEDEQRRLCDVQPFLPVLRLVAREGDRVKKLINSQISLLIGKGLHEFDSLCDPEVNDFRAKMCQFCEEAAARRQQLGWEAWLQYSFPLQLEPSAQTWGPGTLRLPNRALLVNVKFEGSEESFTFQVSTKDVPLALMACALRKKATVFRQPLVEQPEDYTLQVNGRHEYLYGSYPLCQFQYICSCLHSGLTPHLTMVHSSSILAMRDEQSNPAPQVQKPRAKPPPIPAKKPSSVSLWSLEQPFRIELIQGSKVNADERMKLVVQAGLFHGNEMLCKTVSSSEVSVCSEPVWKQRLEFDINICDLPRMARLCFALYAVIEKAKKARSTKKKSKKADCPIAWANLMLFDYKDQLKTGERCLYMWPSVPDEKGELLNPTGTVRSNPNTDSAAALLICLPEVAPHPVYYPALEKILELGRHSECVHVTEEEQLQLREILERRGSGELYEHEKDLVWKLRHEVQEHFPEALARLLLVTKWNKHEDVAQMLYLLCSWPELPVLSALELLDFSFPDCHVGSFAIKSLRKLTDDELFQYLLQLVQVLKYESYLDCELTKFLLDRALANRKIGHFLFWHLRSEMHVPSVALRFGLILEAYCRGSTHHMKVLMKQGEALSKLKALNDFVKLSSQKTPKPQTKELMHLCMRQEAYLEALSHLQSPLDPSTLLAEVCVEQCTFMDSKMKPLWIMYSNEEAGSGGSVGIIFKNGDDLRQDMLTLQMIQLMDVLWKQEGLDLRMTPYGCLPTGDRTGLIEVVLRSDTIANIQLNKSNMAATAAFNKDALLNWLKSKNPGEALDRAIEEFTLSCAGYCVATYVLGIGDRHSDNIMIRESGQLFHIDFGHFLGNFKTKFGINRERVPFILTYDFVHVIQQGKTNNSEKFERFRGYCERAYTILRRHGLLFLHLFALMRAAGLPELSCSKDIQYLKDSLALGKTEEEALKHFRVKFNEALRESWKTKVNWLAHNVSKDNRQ

**Q.** How did the IC50 turn out when `CN(C)C(=O)CN1CCN(Cc2cc3nc(-c4cccc5[nH]ncc45)nc(N4CCOCC4)c3s2)CC1` was run?
**A.** ≤ 100 nM

**Q.** Which IC50 does the source give for `c1cc(-c2nc(N3CCOCC3)c3sc(CN4CCN(Cc5ncc[nH]5)CC4)cc3n2)c2cn[nH]c2c1` here?
**A.** ≤ 100 nM

**Q.** How did the IC50 turn out when `COCCN(CC(F)(F)F)C1CCN(Cc2cc3nc(-c4cccc5[nH]ncc45)nc(N4CCOCC4)c3s2)CC1` was run?
**A.** ≤ 100 nM

**Q.** Which IC50 does the source give for `OCC1CCN(Cc2cc3nc(-c4cccc5[nH]ncc45)nc(N4CCOCC4)c3s2)CC1` here?
**A.** ≤ 100 nM

**Q.** How did the IC50 turn out when `C[C@@H]1CN(Cc2cc3nc(-c4cccc5[nH]ncc45)nc(N4CCOCC4)c3s2)C[C@H](C)N1Cc1ccccn1` was run?
**A.** ≤ 100 nM

**Q.** How did the IC50 turn out when `CS(=O)(=O)N1CCN(Cc2cc3nc(-c4cccc5[nH]ccc45)nc(N4CCOCC4)c3s2)CC1` was run?
**A.** ≤ 100 nM

**Q.** For `CNC(=O)C1CCCN(Cc2cc3nc(-c4cccc5[nH]ncc45)nc(N4CCOCC4)c3s2)C1` (configuration not stated), which IC50 is on record?
**A.** ≤ 100 nM

**Q.** For `c1ccc(CC2CCN(Cc3cc4nc(-c5cccc6[nH]ncc56)nc(N5CCOCC5)c4s3)CC2)nc1`, which IC50 is on record?
**A.** ≤ 100 nM

**Q.** Which IC50 does the source give for `c1cc(-c2nc(N3CCOCC3)c3sc(CN4CCC(N5CCOCC5)CC4)cc3n2)c2cn[nH]c2c1` here?
**A.** ≤ 100 nM

**Q.** `COCCN(C)C1CCCN(Cc2cc3nc(-c4cccc5[nH]ncc45)nc(N4CCOCC4)c3s2)C1` (configuration not stated) was tested. Which IC50 did it give?
**A.** ≤ 100 nM

**Q.** Which IC50 does the source give for `O=S(=O)(CCCN1CCOCC1)N1CCN(Cc2cc3nc(-c4cccc5[nH]ncc45)nc(N4CCOCC4)c3s2)CC1` here?
**A.** ≤ 100 nM

**Q.** For `c1cc(-c2nc(N3CCOCC3)c3sc(CN4CCN(Cc5cnc[nH]5)CC4)cc3n2)c2cn[nH]c2c1`, which IC50 is on record?
**A.** ≤ 100 nM

**Q.** Which IC50 does the source give for `CN(C)C1CCN(Cc2cc3nc(-c4cccc5[nH]ccc45)nc(N4CCOCC4)c3s2)CC1` here?
**A.** ≤ 100 nM

**Q.** For `c1ccc(OC2CCN(Cc3cc4nc(-c5cccc6[nH]ncc56)nc(N5CCOCC5)c4s3)CC2)nc1`, which IC50 is on record?
**A.** ≤ 100 nM

**Q.** Which IC50 does the source give for `COCCN(C(C)C)C1CCN(Cc2cc3nc(-c4cccc5[nH]ncc45)nc(N4CCOCC4)c3s2)CC1` here?
**A.** ≤ 100 nM

**Q.** How did the IC50 turn out when `c1cnc(N2CCN(Cc3cc4nc(-c5cccc6[nH]ncc56)nc(N5CCOCC5)c4s3)CC2)nc1` was run?
**A.** ≤ 100 nM

**Q.** How did the IC50 turn out when `c1cc(-c2nc(N3CCOCC3)c3sc(CN4CCN(CC5CC5)CC4)cc3n2)c2cn[nH]c2c1` was run?
**A.** ≤ 100 nM

**Q.** Which IC50 does the source give for `c1cc(-c2nc(N3CCOCC3)c3sc(CN4CCN(Cc5ccncc5)CC4)cc3n2)c2cn[nH]c2c1` here?
**A.** ≤ 100 nM

**Q.** For `OC(COc1ccccc1)CN1CCN(Cc2cc3nc(-c4cccc5[nH]ncc45)nc(N4CCOCC4)c3s2)CC1` (configuration not stated), which IC50 is on record?
**A.** ≤ 100 nM

**Q.** For `OCC1CCCN(Cc2cc3nc(-c4cccc5[nH]ncc45)nc(N4CCOCC4)c3s2)C1` (configuration not stated), which IC50 is on record?
**A.** ≤ 100 nM

**Q.** For `COCCOC1CCN(Cc2cc3nc(-c4cccc5[nH]ncc45)nc(N4CCOCC4)c3s2)CC1`, which IC50 is on record?
**A.** ≤ 100 nM

**Q.** For `CN1CCN(Cc2cc3nc(-c4cccc5nn(C)cc45)nc(N4CCOCC4)c3s2)CC1`, which IC50 is on record?
**A.** ≤ 100 nM

**Q.** For `COCCN1CCN(Cc2cc3nc(-c4cccc5[nH]ncc45)nc(N4CCOCC4)c3s2)CC1`, which IC50 is on record?
**A.** ≤ 100 nM

**Q.** For `c1ccc(N2CCN(Cc3cc4nc(-c5cccc6[nH]ncc56)nc(N5CCOCC5)c4s3)CC2)nc1`, which IC50 is on record?
**A.** ≤ 100 nM

**Q.** Which IC50 does the source give for `CN1CCN(Cc2cc3nc(-c4cccc5[nH]ccc45)nc(N4CCOCC4)c3s2)CC1` here?
**A.** ≤ 100 nM

**Q.** With `NC(=O)C1CCN(Cc2cc3nc(-c4cccc5[nH]ncc45)nc(N4CCOCC4)c3s2)CC1` as the compound, how does the IC50 read?
**A.** ≤ 100 nM

**Q.** Which IC50 does the source give for `COCCN(C)C(=O)N1CCN(Cc2cc3nc(-c4cccc5[nH]ncc45)nc(N4CCOCC4)c3s2)CC1` here?
**A.** ≤ 100 nM

**Q.** With `Cc1cc(CN2CCN(Cc3cc4nc(-c5cccc6[nH]ncc56)nc(N5CCOCC5)c4s3)CC2)no1` as the compound, how does the IC50 read?
**A.** ≤ 100 nM

**Q.** `COCCN(C)CC1CCN(Cc2cc3nc(-c4cccc5[nH]ncc45)nc(N4CCOCC4)c3s2)CC1` was tested. Which IC50 did it give?
**A.** ≤ 100 nM

**Q.** Which IC50 does the source give for `O=C(N1CCOCC1)N1CCN(Cc2cc3nc(-c4cccc5[nH]ncc45)nc(N4CCOCC4)c3s2)CC1` here?
**A.** ≤ 100 nM

**Q.** With `C[C@@H]1CN(C)C[C@H](C)N1Cc1cc2nc(-c3cccc4[nH]ncc34)nc(N3CCOCC3)c2s1` as the compound, how does the IC50 read?
**A.** ≤ 100 nM

**Q.** How did the IC50 turn out when `c1cncc(CN2CCN(Cc3cc4nc(-c5cccc6[nH]ncc56)nc(N5CCOCC5)c4s3)CC2)c1` was run?
**A.** ≤ 100 nM

**Q.** How did the IC50 turn out when `CS(=O)(=O)N1CCN(Cc2cc3nc(-c4cccc5[nH]ncc45)nc(N4CCOCC4)c3s2)CC1CO` (configuration not stated) was run?
**A.** ≤ 100 nM

**Q.** How did the IC50 turn out when `COCCN(C)C1CCN(Cc2cc3nc(-c4cccc5[nH]ncc45)nc(N4CCOCC4)c3s2)CC1` was run?
**A.** ≤ 100 nM

**Q.** For `FC(F)(F)CN1CCN(Cc2cc3nc(-c4cccc5[nH]ncc45)nc(N4CCOCC4)c3s2)CC1`, which IC50 is on record?
**A.** ≤ 100 nM

**Q.** For `O=C1CN(Cc2cc3nc(-c4cccc5[nH]ncc45)nc(N4CCOCC4)c3s2)CCN1CCO`, which IC50 is on record?
**A.** ≤ 100 nM

**Q.** Which IC50 does the source give for `Cc1csc(CN2CCN(Cc3cc4nc(-c5cccc6[nH]ncc56)nc(N5CCOCC5)c4s3)CC2)n1` here?
**A.** ≤ 100 nM
